Data published in US20250320233A1, “ARGINASE INHIBITOR AND PHARMACEUTICAL COMPOSITION COMPRISING THE SAME” (Daewoong Pharmaceutical Co., Ltd., priority 2022, published 2025).
Where a name gives a salt, the structure may show the parent alone.

What follows are molecules tested against Arginase-1 (Homo sapiens (Human), UniProt P05089) (assay: Arginase inhibitory activity test). Details: Arginase-1, L-arginine substrate, absorbance at 450 nm.
Assay type: biochemical
Protocol: An arginase inhibitory activity test was conducted for the compound according to the present disclosure.
Specifically, all reagents required for evaluation were diluted in a reaction buffer (8 mM NAHPO4, 2 mM KH2PO4, pH 7.5, 137 mM NaCl, 2.7 mM KCl, and 0.05% Tween-20), and the compound was dissolved in DMSO and then diluted, and then diluted in the reaction buffer to conform to the desired concentration. 10 μL of the compound and 10 μL of 30 nM Arginase-1 were mixed in a transparent 96-well plate (SPL), and incubated at room temperature for 1 hour or more. After that, 10 μL of 15 mM L-arginine and 3 mM MnCl2 were added to the plate, and then reacted at room temperature for 30 minutes or more. Finally, 30 μL of a 1:1 mixture of reagent A (10 mM o-phthaldialdehyde, 0.4% polyoxyethylene lauryl ether, and 1.8M sulfuric acid in DW) and reagent B (1.3 mM primaquine diphosphate, 0.4% polyoxyethylene lauryl ether, and 3.6 M sulfuric acid in DW) was added to complete the enzyme reaction, and incubated at room temperature for 1 hour or more. The plate after incubation was measured for absorbance at 450 nm using a Flexstation3 multi-mode microplate reader (Molecular Devices).
The background control (BC) reading value was subtracted from all reading values to obtain the ΔOD for each reading value. The ΔOD of the enzyme control (EC) was set to the maximum value, and the % relative Arginase-1 activity of each compound (S) was calculated using the following Equation, and the IC50 value of the compound was determined using PRISM (GraphPad software).

Arginase-1, sequence (P05089 whole entry, species assumed): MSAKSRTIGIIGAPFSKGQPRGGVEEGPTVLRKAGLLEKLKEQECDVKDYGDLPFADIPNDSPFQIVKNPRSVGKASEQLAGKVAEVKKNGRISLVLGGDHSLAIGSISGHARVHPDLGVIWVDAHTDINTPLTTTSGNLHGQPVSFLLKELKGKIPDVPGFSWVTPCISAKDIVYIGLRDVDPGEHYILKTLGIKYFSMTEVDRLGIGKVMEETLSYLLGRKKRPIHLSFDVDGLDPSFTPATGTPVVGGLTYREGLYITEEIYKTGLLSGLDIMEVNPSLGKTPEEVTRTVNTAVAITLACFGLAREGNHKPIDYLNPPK

| Structure (SMILES) | IC50 [nM] |
| --- | --- |
| N[C@@H](Cc1ccccc1)C(=O)N1CC[C@H]2[C@@H]1CN[C@@]2(CCCCB(O)O)C(=O)O [Example 3, (3aS,4R,6aR)-1-((S)-2-amino-3-phenylpropanoyl)-4-(4-boronobutyl)octahydropyrrolo[3,4-b]pyrrole-4-carboxylic acid dihydrochloride] | 100 to 1000 |
| O=C(O)[C@]1(CCCCB(O)O)NC[C@@H]2NCC[C@@H]21 [Example 1, (3aS,4R,6aR)-4-(4-boronobutyl)octahydropyrrolo[3,4-b]pyrrole-4-carboxylic acid dihydrochloride] | < 100 |
| CNCCN1CC[C@H]2[C@@H]1CN[C@@]2(CCCCB(O)O)C(=O)O [Example 28, (3aS,4R,6aR)-4-(4-boronobutyl)-1-(2-(methylamino)ethyl)octahydropyrrolo[2,3-c]pyrrole-4-carboxylic acid hydrochloride] | 100 to 1000 |
| O=C([C@@H]1CCCN1)N1CC[C@H]2[C@@H]1CN[C@@]2(CCCCB(O)O)C(=O)O [Example 4, (3aS,4R,6aR)-4-(4-boronobutyl)-1-((S)-pyrrolidine-2-carbonyl)octahydropyrrolo[3,4-b]pyrrole-4-carboxylic acid dihydrochloride] | 100 to 1000 |

Continued, values first:

| IC50 [nM] | Structure (SMILES) |
| --- | --- |
| 100 to 1000 | C[C@H](O)[C@@H](N)C(=O)N1CC[C@H]2[C@@H]1CN[C@@]2(CCCCB(O)O)C(=O)O [Example 5, (3aS,4R,6aR)-1-((2R,3S)-2-amino-3-hydroxybutanoyl)-4-(4-boronobutyl)octahydropyrrolo[3,4-b]pyrrole-4-carboxylic acid dihydrochloride] |
| > 1000 | CC(C)C[C@H](N)C(=O)N1CC[C@H]2[C@@H]1CN[C@@]2(CCCCB(O)O)C(=O)O [Example 7, (3aS,4R,6aR)-1-((S)-2-amino-4-methylpentanoyl)-4-(4-boronobutyl)octahydropyrrolo[3,4-b]pyrrole-4-carboxylic acid dihydrochloride] |
| > 1000 | CC(C)[C@H](N)C(=O)N1CC[C@H]2[C@@H]1CN[C@@]2(CCCCB(O)O)C(=O)O [Example 6, (3aS,4R,6aR)-1-((S)-2-amino-3-methylbutanoyl)-4-(4-boronobutyl)octahydropyrrolo[3,4-b]pyrrole-4-carboxylic acid dihydrochloride] |
| > 1000 | C[C@@H](N)C(=O)N1CC[C@H]2[C@@H]1CN[C@@]2(CCCCB(O)O)C(=O)O [Example 9, (3aS,4R,6aR)-1-((R)-2-aminopropanoyl)-4-(4-boronobutyl)octahydropyrrolo[3,4-b]pyrrole-4-carboxylic acid dihydrochloride] |
| 100 to 1000 | C[C@H](N)C(=O)N1CC[C@H]2[C@@H]1CN[C@@]2(CCCCB(O)O)C(=O)O [Example 2, (3aS,4R,6aR)-1-((S)-2-aminopropanoyl)-4-(4-boronobutyl)octahydropyrrolo[3,4-b]pyrrole-4-carboxylic acid dihydrochloride] |
| < 100 | CN1CC[C@H]2[C@@H]1CN[C@@]2(CCCCB(O)O)C(=O)O [Example 27, (3aS,4R,6aR)-4-(4-boronobutyl)-1-methyloctahydropyrrolo[3,4-b]pyrrole-4-carboxylic acid hydrochloride] |

The molecules below were run on Primary Peripheral Blood Mononuclear Cells (PBMC) (assay: PBMC activity evaluation test (T cell proliferation suppressed by synthetic arginase 1, CellTiter-Glo)). Details: PBMC with α-CD3/α-CD28 antibodies and synthetic arginase 1, 72 hours, CellTiter-Glo luminescence; read-out: EC50.
Assay type: cell-based
Protocol: A Primary Peripheral Blood Mononuclear Cells (PBMC) activity test was performed for the compound according to the present disclosure. […] To evaluate the proliferation of T cells, the CellTiter-Glo® Luminescent Cell Viability (Promega, Catalog #G7571) evaluation method was used, which can confirm the proliferation of cells by quantifying the ATP present in the cells. In addition to the compound according to the present disclosure, the compound CB-1158 (Numidargistat) was also tested together for comparison.
Specifically, α-CD3 antibody was coated on a clear 96-well microplate. 1×10^5 PBMC cells were placed in each well. RPMI media (10% FBS, 1% penicillin/streptomycin) was used as the cell culture medium. α-CD28 antibody and synthetic arginase 1 were added to each well. The compounds prepared in Examples were treated at different concentrations (2, 1, 0.5, 0.25, 0.125, 0.0625, 0.03125 μM). After incubating for 72 hours, 50 μL of cells from each well were transferred to a white 96-well microplate, and mixed with 50 μL of CellTiter-Glo® solution.
After performing the reaction at room temperature for 10 minutes in the state where light was blocked, the luminescence was measured. The measurement results for each compound were calculated using Excel, and the EC50 value was calculated using GraphPad Prism software.

| Structure (SMILES) | EC50 [nM] |
| --- | --- |
| O=C(O)[C@]1(CCCCB(O)O)NC[C@@H]2NCC[C@@H]21 [Example 1, (3aS,4R,6aR)-4-(4-boronobutyl)octahydropyrrolo[3,4-b]pyrrole-4-carboxylic acid dihydrochloride] | < 100 |

Same assay, conditions: PBMC, 72 h

| Structure (SMILES) | EC50 [nM] |
| --- | --- |
| C[C@H](N)C(=O)N1C[C@H](CCCB(O)O)[C@](N)(C(=O)O)C1 [CB-1158 (Numidargistat), Numidargistat, reference compound] | 100 to 500 |
